Laboratory results as given in ChEMBL document CHEMBL4043225, “Identification of potent, nonabsorbable agonists of the calcium-sensing receptor for GI-specific administration” (Bioorg Med Chem Lett, 2017).

Legend:
[1] = molecular target: T1, Extracellular calcium-sensing receptor (Homo sapiens) (UniProt P41180); test: (§1) Agonist activity at human CaSR expressed in HEK293 cells assessed as increase in intracellular calcium mobilization by fluo-4AM dye based FLIPR assay; type: functional, cell-based
T1 sequence (whole entry): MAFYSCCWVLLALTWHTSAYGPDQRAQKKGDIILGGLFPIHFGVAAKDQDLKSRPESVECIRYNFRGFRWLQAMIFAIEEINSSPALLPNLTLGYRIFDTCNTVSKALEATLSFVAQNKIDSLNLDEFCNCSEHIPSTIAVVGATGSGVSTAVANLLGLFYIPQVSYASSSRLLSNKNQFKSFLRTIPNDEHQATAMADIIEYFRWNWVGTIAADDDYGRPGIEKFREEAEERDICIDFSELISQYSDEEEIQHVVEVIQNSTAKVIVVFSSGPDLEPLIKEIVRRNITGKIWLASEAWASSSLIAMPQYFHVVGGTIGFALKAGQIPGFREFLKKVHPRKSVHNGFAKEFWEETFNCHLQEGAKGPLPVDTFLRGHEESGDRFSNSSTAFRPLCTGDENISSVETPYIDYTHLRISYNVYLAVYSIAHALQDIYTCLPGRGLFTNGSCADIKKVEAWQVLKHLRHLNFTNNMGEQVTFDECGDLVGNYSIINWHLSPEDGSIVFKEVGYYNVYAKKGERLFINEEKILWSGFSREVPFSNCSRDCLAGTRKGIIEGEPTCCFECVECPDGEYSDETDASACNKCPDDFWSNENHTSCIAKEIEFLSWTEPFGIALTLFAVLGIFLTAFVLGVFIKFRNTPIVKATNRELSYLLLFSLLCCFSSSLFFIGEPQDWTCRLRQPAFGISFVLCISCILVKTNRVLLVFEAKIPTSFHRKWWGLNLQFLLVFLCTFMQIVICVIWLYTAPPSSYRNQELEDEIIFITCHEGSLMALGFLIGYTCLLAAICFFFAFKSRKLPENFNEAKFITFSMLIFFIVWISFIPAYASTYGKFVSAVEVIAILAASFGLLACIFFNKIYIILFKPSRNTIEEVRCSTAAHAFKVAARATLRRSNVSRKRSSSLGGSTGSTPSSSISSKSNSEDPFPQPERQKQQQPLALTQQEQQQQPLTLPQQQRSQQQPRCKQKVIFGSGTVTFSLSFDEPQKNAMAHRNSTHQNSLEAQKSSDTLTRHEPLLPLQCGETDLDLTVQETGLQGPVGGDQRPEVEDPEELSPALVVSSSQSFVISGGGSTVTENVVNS

[2] = molecular target: T2, Extracellular calcium-sensing receptor (Homo sapiens, UniProt P41180); test: as §1; type: functional, cell-based
T2 sequence (P41180 whole entry): T1 sequence (whole entry)

[3] = Half-life in Sprague-Dawley rat cecal homogenates at 10 uM by LC-MS/MS analysis; type: ADME, tissue-based, Caecum
[4] = Cmax in CD rat portal vein at 30 mg/kg, po administered via gavage; type: ADME, organism-based; design: dose 30 mg/kg, route oral
[5] = Cmax in CD rat systemic circulation at 30 mg/kg, po administered via gavage; type: ADME, organism-based; design: dose 30 mg/kg, route oral
[6] = Drug recovery in CD rat feces at 30 mg/kg, po administered via gavage measured by LC-MS/MS analysis; type: ADME, organism-based; settings: read-out: Drug recovery
[7] = molecular target: T3, Extracellular calcium-sensing receptor (Mus musculus) (UniProt Q9QY96); test: (§2) Agonist activity at mouse CaSR expressed in HEK293 cells assessed as increase in intracellular calcium mobilization by fluo-4AM dye based FLIPR assay; type: functional, cell-based
T3 sequence (whole entry): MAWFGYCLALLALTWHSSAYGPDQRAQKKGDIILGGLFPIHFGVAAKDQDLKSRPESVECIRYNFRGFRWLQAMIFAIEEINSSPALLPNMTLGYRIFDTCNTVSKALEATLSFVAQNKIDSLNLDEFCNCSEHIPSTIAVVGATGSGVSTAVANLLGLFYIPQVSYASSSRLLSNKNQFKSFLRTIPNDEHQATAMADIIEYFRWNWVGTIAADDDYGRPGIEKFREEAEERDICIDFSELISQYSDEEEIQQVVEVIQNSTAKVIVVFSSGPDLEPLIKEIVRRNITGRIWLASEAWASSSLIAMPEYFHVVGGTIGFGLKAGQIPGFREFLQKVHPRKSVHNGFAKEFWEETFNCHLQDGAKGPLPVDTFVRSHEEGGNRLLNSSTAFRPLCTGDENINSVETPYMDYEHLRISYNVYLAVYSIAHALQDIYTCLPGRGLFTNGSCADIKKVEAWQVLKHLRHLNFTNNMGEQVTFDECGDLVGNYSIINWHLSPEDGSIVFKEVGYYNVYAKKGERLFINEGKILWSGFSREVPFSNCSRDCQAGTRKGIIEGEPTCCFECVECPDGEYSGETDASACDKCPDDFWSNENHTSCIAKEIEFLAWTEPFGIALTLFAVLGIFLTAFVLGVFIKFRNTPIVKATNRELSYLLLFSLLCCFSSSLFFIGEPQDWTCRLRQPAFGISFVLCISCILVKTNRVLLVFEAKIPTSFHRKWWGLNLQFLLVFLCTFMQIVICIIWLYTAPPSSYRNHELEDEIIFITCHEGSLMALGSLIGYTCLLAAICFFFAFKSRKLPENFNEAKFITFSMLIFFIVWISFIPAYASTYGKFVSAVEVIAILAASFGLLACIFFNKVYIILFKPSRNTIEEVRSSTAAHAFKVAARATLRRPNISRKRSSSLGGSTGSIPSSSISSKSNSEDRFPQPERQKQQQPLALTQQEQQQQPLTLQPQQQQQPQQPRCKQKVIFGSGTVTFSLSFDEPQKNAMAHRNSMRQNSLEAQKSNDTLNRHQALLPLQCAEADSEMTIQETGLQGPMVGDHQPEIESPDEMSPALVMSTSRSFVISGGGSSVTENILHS

[8] = molecular target: T4, Extracellular calcium-sensing receptor (Mus musculus, UniProt Q9QY96); test: as §2; type: functional, cell-based
T4 sequence (Q9QY96 whole entry): T3 sequence (whole entry)

[9] = AUC in CD rat portal vein at 10 mg/kg, po administered via gavage; type: ADME, organism-based
[10] = AUC in CD rat systemic circulation at 10 mg/kg, po administered via gavage; type: ADME, organism-based
[11] = Protein binding in CD rat plasma at 10 mg/kg, administered via gavage; type: ADME, organism-based; settings: po, read-out: PPB (converted)
[12] = system: Rattus norvegicus; test: Unbound Cmax in CD rat portal vein at 10 mg/kg, po administered via gavage; type: ADME, organism-based; settings: in vivo
[13] = system: Rattus norvegicus; test: Unbound Cmax in CD rat systemic circulation at 10 mg/kg, po administered via gavage; type: ADME, organism-based; settings: in vivo
[14] = molecular target: T5, Extracellular calcium-sensing receptor (Rattus norvegicus) (UniProt P48442); test: (§3) Agonist activity at rat CaSR expressed in HEK293 cells assessed as increase in intracellular calcium mobilization by fluo-4AM dye based FLIPR assay; type: functional, cell-based
T5 sequence (whole entry): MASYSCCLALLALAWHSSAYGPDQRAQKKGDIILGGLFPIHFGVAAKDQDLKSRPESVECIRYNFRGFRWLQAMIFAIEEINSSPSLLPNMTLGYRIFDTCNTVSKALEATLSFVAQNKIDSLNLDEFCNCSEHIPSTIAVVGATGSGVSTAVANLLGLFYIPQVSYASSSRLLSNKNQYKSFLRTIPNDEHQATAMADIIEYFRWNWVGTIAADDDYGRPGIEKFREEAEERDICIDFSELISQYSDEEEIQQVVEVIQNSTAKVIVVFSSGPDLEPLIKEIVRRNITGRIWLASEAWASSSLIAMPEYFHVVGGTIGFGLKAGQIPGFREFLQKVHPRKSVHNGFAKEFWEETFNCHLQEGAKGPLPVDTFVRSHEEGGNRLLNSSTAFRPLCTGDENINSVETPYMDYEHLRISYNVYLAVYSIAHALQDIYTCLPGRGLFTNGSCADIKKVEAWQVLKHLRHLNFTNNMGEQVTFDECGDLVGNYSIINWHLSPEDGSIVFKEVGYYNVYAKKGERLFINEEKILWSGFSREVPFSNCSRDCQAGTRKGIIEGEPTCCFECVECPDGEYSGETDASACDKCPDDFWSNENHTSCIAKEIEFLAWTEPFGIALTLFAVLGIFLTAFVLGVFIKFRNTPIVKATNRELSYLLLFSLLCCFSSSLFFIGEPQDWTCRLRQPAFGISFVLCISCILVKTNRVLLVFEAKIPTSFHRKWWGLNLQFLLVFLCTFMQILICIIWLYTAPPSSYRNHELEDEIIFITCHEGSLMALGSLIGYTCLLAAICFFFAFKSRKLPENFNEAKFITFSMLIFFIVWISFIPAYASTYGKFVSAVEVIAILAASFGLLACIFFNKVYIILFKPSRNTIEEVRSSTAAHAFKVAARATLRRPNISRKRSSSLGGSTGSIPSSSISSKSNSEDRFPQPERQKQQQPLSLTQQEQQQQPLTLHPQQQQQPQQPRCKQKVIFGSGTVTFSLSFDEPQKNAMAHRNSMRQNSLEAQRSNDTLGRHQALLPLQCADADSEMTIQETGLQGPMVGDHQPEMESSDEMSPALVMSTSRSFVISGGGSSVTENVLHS

[15] = molecular target: T6, Extracellular calcium-sensing receptor (Rattus norvegicus, UniProt P48442); test: as §3; type: functional, cell-based
T6 sequence (P48442 whole entry): T5 sequence (whole entry)

[16] = Aqueous solubility of the compound in FASSIF; type: physicochemical
[17] = Aqueous solubility of the compound in FESSIF; type: physicochemical
[18] = Aqueous solubility of the compound in SGF; type: physicochemical

SMILES	%max [1]	EC50 ([2]; read-out: pEC50 (converted))	half-life at 10 µM [3]	Cmax [4]	Cmax [5]	further results
C[C@@H](N[C@H]1CCN(c2ccc(S(=O)(=O)NCCn3cnc(C(=O)O)c3C(=O)O)cc2)C1)c1cccc2ccccc12	127%	7.94 nM	–	–	–	–
C[C@@H](N[C@H]1CCN(c2ccc(C(=O)NCCn3cnc(C(=O)O)c3C(=O)O)cc2)C1)c1cccc2ccccc12	96%	5.01 nM	468 min	6 ng/mL	< 4 ng/mL	dose excreted [6]: 54%
C[C@@H](N[C@H]1CCN(c2ccc(C(=O)O)cc2)C1)c1cccc2ccccc12	84%	158 nM	> 720 min	–	–	–
C[C@@H](N[C@H]1CCN(c2ccc(C(=O)NC(CO)(CO)CO)cc2)C1)c1cccc2ccccc12	80%	39.8 nM	> 720 min	–	–	–
C[C@@H](N[C@H]1CCN(c2ccc(C(=O)NCC(=O)O)cc2)C1)c1cccc2ccccc12	69%	79.4 nM	–	–	–	–
C[C@@H](N[C@H]1CCN(c2ccc(C(=O)NCCNC(CO)(CO)CO)cc2)C1)c1cccc2ccccc12	101%	7.94 nM	204 min	–	–	–
C[C@@H](N[C@H]1CCN(c2ccc(S(N)(=O)=O)cc2)C1)c1cccc2ccccc12	87%	20 nM	> 720 min	–	–	–
C[C@@H](N[C@H]1CCN(c2ccc(C(=O)NCCCN3CCC(C(=O)O)CC3)cc2)C1)c1cccc2ccccc12	84 to 93%	–	> 720 min	57 ng/mL	48 ng/mL	EC50 ([2]; read-out: EC50): 50 nM; %max [7]: 62%; EC50 [8]: 251 nM; dose excreted [6]: 86.3%; AUC [9]: 265 ng·h/mL; AUC [10]: 266 ng·h/mL; fraction unbound [11]: 0.07; fCmax [12]: 7 nM; fCmax [13]: 3 ng/mL; %max [14]: 66%; EC50 [15]: 316 nM; solubility [16]: > 1000 µg/mL; solubility [17]: > 1000 µg/mL; solubility [18]: > 1000 µg/mL
C[C@@H](N[C@H]1CCN(c2ccc(S(=O)(=O)NC(=O)CCC(=O)O)cc2)C1)c1cccc2ccccc12	74%	501 nM	630 min	–	–	–
C[C@@H](N[C@H]1CCN(c2ccc(C(=O)NCCCCNC(CO)(CO)CO)cc2)C1)c1cccc2ccccc12	92%	15.8 nM	480 min	540 ng/mL	440 ng/mL	–
